# Patent US10689327B2, “Prodrug amino acid derivative” (TAISHO PHARMACEUTICALS CO., LTD., priority 2016, dated 2020)
# Experiment: Stability test in solution (pH 1.2 and pH 6.5)
# Type: physicochemical
# Details: 1 hour; for Compound's percent residue (%) pH 6.5: 20 mM phosphate buffer pH 6.5, 37° C.; for Compound's percent residue (%) pH 1.2: hydrochloric acid solution pH 1.2, 37° C.
# Procedure: Test 2: Stability Test in Solution
# A test to determine the stability of Inventive Compounds (I-A) or (I) in a hydrochloric acid solution (pH 1.2) and 20 mM phosphate buffer (pH 6.5) was conducted in accordance with the following method.
# A compound was dissolved in a hydrochloric acid solution (pH 1.2) containing hydrochloric acid and sodium chloride or a 20 mM phosphate buffer (pH 6.5) containing disodium hydrogenphosphate, sodium dihydrogenphosphate and sodium chloride to prepare a solution with a concentration of about 50 ng/mL (near the saturated concentration when the compound was not dissolved). The solution was incubated at 37° C. for 1 hour and the compound's concentration before and after the incubation was quantified by high-performance liquid chromatography to calculate the percent residue of the compound. Compounds having low solubility were assessed as being not applicable.
# The percent residues of representative compounds in the hydrochloric acid solution (pH 1.2) and the 20 mM phosphate buffer (pH 6.5) are shown in the following Table 2.
SMILES,Compound's percent residue (%) pH 6.5,Compound's percent residue (%) pH 1.2
"CC(OC(=O)O[C@@H]1C[C@@H]2CC[C@@]1(C)C2(C)C)OC(=O)[C@@]1(N)[C@H]2[C@@H](C[C@H]1OCc1ccc(F)cc1)[C@]2(F)C(=O)O (stereo partly drawn) [Example 17-B, (1R,2R,3R,5R,6R)-2-Amino-6-fluoro-3-[(4-fluorophenyl)methoxy]-2-({1-[({[(1S,2R,4S)-1,7,7-trimethylbicyclo[2.2.1]heptan-2-yl]oxy}carbonyl)oxy]ethoxy}carbonyl)bicyclo[3.1.0]hexane-6-carboxylic acid]",100%,106%
"CCCO[C@@H]1C[C@@H]2[C@H]([C@]1(N)C(=O)OC(C)OC(=O)O[C@@H]1C[C@@H]3CC[C@@]1(C)C3(C)C)[C@@]2(F)C(=O)O (stereo partly drawn) [Example 18-B, (1R,2R,3R,5R,6R)-2-Amino-6-fluoro-3-propoxy-2-({1-[({[(1S,2R,4S)-1,7,7-trimethylbicyclo[2.2.1]heptan-2-yl]oxy}carbonyl)oxy]ethoxy}carbonyl)bicyclo[3.1.0]hexane-6-carboxylic acid]",112%,–
"CC(OC(=O)O[C@H]1C[C@H]2CC[C@]1(C)C2(C)C)OC(=O)[C@@]1(N)[C@H]2[C@@H](C[C@H]1OCc1ccc(F)cc1)[C@]2(F)C(=O)O (stereo partly drawn) [Example 19-A, (1R,2R,3R,5R,6R)-2-Amino-6-fluoro-3-[(4-fluorophenyl)methoxy]-2-({1-[({[(1R,2S,4R)-1,7,7-trimethylbicyclo[2.2.1]heptan-2-yl]oxy}carbonyl)oxy]ethoxy}carbonyl)bicyclo[3.1.0]hexane-6-carboxylic acid]",99%,98%
"CCCO[C@@H]1C[C@@H]2[C@H]([C@]1(N)C(=O)OC(C)OC(=O)O[C@H]1C[C@H]3CC[C@]1(C)C3(C)C)[C@@]2(F)C(=O)O (stereo partly drawn) [Example 20, (1R,2R,3R,5R,6R)-2-Amino-6-fluoro-3-propoxy-2-({1-[({[(1R,2S,4R)-1,7,7-trimethylbicyclo[2.2.1]heptan-2-yl]oxy}carbonyl)oxy]ethoxy}carbonyl)bicyclo[3.1.0]hexane-6-carboxylic acid]",100%,106%
"CC(OC(=O)O[C@H]1C(C)(C)[C@H]2CC[C@]1(C)C2)OC(=O)[C@@]1(N)[C@H]2[C@@H](C[C@H]1OCc1ccc(F)cc1)[C@]2(F)C(=O)O (stereo partly drawn) [Example 21, (1R,2R,3R,5R,6R)-2-Amino-6-fluoro-3-[(4-fluorophenyl)methoxy]-2-({1-[({[(1R,2R,4S)-1,3,3-trimethylbicyclo[2.2.1]heptan-2-yl]oxy}carbonyl)oxy]ethoxy}carbonyl)bicyclo[3.1.0]hexane-6-carboxylic acid]",98%,101%
"C[C@@H](OC(=O)C12CC3CC(CC(C3)C1)C2)OC(=O)[C@@]1(N)[C@H]2[C@@H](C[C@H]1OCc1ccc(C(F)(F)F)cc1)[C@]2(F)C(=O)O [Example 22, (1R,2R,3R,5R,6R)-2-amino-6-fluoro-2-({(1S)-1-[(tricyclo[3.3.1.1^3,7]decane-1-carbonyl)oxy]ethoxy}carbonyl)-3-{[4-(trifluoromethyl)phenyl]methoxy}bicyclo[3.1.0]hexane-6-carboxylic acid]",94%,96%
"C[C@@H](OC(=O)C12CC3CC(CC(C3)C1)C2)OC(=O)[C@@]1(N)[C@H]2[C@@H](C[C@H]1OCc1cccc(F)c1)[C@]2(F)C(=O)O [Example 23, (1R,2R,3R,5R,6R)-2-amino-6-fluoro-3-[(3-fluorophenyl)methoxy]-2-({(1S)-1-[(tricyclo[3.3.1.1^3,7]decane-1-carbonyl)oxy]ethoxy}carbonyl)bicyclo[3.1.0]hexane-6-carboxylic acid]",100%,101%
"C[C@@H](OC(=O)C12CC3CC(CC(C3)C1)C2)OC(=O)[C@@]1(N)[C@H]2[C@@H](C[C@H]1OCc1cccc(Cl)n1)[C@]2(F)C(=O)O [Example 24, (1R,2R,3R,5R,6R)-2-amino-3-[(6-chloropyridin-2-yl)methoxy]-6-fluoro-2-({(1S)-1-[(tricyclo[3.3.1.1^3,7]decane-1-carbonyl)oxy]ethoxy}carbonyl)bicyclo[3.1.0]hexane-6-carboxylic acid]",96%,95%
"COc1cc([C@@H](C)O[C@@H]2C[C@@H]3[C@H]([C@]2(N)C(=O)O[C@@H](C)OC(=O)C24CC5CC(CC(C5)C2)C4)[C@@]3(F)C(=O)O)ccc1F [Example 25, (1R,2R,3R,5R,6R)-2-amino-6-fluoro-3-[(1R)-1-(4-fluoro-3-methoxyphenyl)ethoxy]-2-({(1S)-1-[(tricyclo[3.3.1.1^3,7]decane-1-carbonyl)oxy]ethoxy}carbonyl)bicyclo[3.1.0]hexane-6-carboxylic acid]",99%,98%
"C[C@@H](OC(=O)C12CC3CC(CC(C3)C1)C2)OC(=O)[C@@]1(N)[C@H]2[C@@H](C[C@H]1OCc1ccc(Cl)cn1)[C@]2(F)C(=O)O [Example 26, (1R,2R,3R,5R,6R)-2-amino-3-[(5-chloropyridin-2-yl)methoxy]-6-fluoro-2-({(1S)-1-[(tricyclo[3.3.1.1^3,7]decane-1-carbonyl)oxy]ethoxy}carbonyl)bicyclo[3.1.0]hexane-6-carboxylic acid]",94%,97%
"C[C@@H](OC(=O)C12CC3CC(CC(C3)C1)C2)OC(=O)[C@@]1(N)[C@H]2[C@@H](C[C@H]1OCc1ccc(Cl)nc1)[C@]2(F)C(=O)O [Example 27, (1R,2R,3R,5R,6R)-2-amino-3-[(6-chloropyridin-3-yl)methoxy]-6-fluoro-2-({(1S)-1-[(tricyclo[3.3.1.1^3,7]decane-1-carbonyl)oxy]ethoxy}carbonyl)bicyclo[3.1.0]hexane-6-carboxylic acid]",101%,100%
"CC(C)CCO[C@@H]1C[C@@H]2[C@H]([C@]1(N)C(=O)O[C@@H](C)OC(=O)C13CC4CC(CC(C4)C1)C3)[C@@]2(F)C(=O)O [Example 29, (1R,2R,3R,5R,6R)-2-amino-6-fluoro-3-(3-methylbutoxy)-2-({(1S)-1-[(tricyclo[3.3.1.1^3,7]decane-1-carbonyl)oxy]ethoxy}carbonyl)bicyclo[3.1.0]nexane-6-carboxylic acid]",103%,102%

# Results, then the compound that gave them:
Compound's percent residue (%) pH 6.5,Compound's percent residue (%) pH 1.2,SMILES
102%,100%,"C[C@@H](OC(=O)C12CC3CC(CC(C3)C1)C2)OC(=O)[C@@]1(N)[C@H]2[C@@H](C[C@H]1OC1CCCC1)[C@]2(F)C(=O)O [Example 30, (1R,2R,3R,5R,6R)-2-amino-3-(cyclopentyloxy)-6-fluoro-2-({(1S)-1-[(tricyclo[3.3.1.1^3,7]decane-1-carbonyl)oxy]ethoxy}carbonyl)bicyclo[3.1.0]hexane-6-carboxylic acid]"
97%,96%,"CC(C)[C@@H]1CC[C@@H](C)C[C@H]1OC(=O)O[C@H](C)OC(=O)[C@@]1(N)[C@H]2[C@@H](C[C@H]1OCc1cccc(Cl)n1)[C@]2(F)C(=O)O [Example 33, (1R,2R,3R,5R,6R)-2-amino-3-[(6-chloropyridin-2-yl)methoxy]-6-fluoro-2-({(1R)-1-[({[(1R,2S,5R)-5-methyl-2-(propan-2-yl)cyclohexyl]oxy}carbonyl)oxy]ethoxy}carbonyl)bicyclo[3.1.0]hexane-6-carboxylic acid]"
94%,100%,"Cc1ccc(CO[C@@H]2C[C@@H]3[C@H]([C@]2(N)C(=O)O[C@@H](C)OC(=O)O[C@@H]2C[C@H](C)CC[C@H]2C(C)C)[C@@]3(F)C(=O)O)cc1 [Example 34, (1R,2R,3R,5R,6R)-2-amino-6-fluoro-3-[(4-methylphenyl)methoxy]-2-({(1R)-1-[({[(1R,2S,5R)-5-methyl-2-(propan-2-yl)cyclohexyl]oxy}carbonyl)oxy]ethoxy}carbonyl)bicyclo[3.1.0]hexane-6-carboxylic acid]"
97%,100%,"CC(C)(C)C(=O)OCOC(=O)[C@@]1(N)[C@H]2[C@@H](C[C@H]1OCc1ccc(F)cc1)[C@]2(F)C(=O)O [Example 35, (1R,2R,3R,5R,6R)-2-amino-2-({[(2,2-dimethylpropanoyl)oxy]methoxy}carbonyl)-6-fluoro-3-[(4-fluorophenyl)methoxy]bicyclo[3.1.0]hexane-6-carboxylic acid]"
99%,100%,"N[C@]1(C(=O)OCOC(=O)c2ccccc2)[C@H]2[C@@H](C[C@H]1OCc1ccc(F)cc1)[C@]2(F)C(=O)O [Example 36, (1R,2R,3R,5R,6R)-2-amino-2-{[(benzoyloxy)methoxy]carbonyl}-6-fluoro-3-[(4-fluorophenyl)methoxy]bicyclo[3.1.0]hexane-6-carboxylic acid]"
96%,102%,"N[C@]1(C(=O)OCOC(=O)C2CCCCC2)[C@H]2[C@@H](C[C@H]1OCc1ccc(F)cc1)[C@]2(F)C(=O)O [Example 37, (1R,2R,3R,5R,6R)-2-amino-2-({[(cyclohexanecarbonyl)oxy]methoxy}carbonyl)-6-fluoro-3-[(4-fluorophenyl)methoxy]bicyclo[3.1.0]hexane-6-carboxylic acid]"
